Patent publication US11091460B2, “Syk inhibitor and use method therefor” (CHIA TAI TIANQING PHARMACEUTICAL GROUP CO., LTD., priority 2017, dated 2021)
Like-named read-outs stand apart in the source and are kept apart here.

How the values were obtained:
[1] = molecular target: T1, SYK kinase (Homo sapiens, UniProt P43405); experiment: In vitro test of the inhibition effect on SYK kinase (HTRF); assay type: biochemical; settings: tyrosine kinase 0.0156 ng/μL, substrate 0.2 uM, ATP 2 uM, 23° C. 1 hour, read-out: Inhibit SYK kinase IC50
T1 construct: purchased Invitrogen PV3857
Method: Experimental Example 1: In Vitro Test of the Inhibition Effect of the Example Compounds on SYK Kinase
Adenosine triphosphate concentration was controlled at 2 uM. • 4) Loaded with a Multidrop automatic dispenser, and a mixture of tyrosinase solution and tyrosine kinase-substrate-biotin/adenosine triphosphate was added in an amount of 5 ul per well, and incubated at 23° C. for 1 hour. • c) Detection phase: • 1) Added 13.33 mL of ethylenediaminetetraacetic acid solution to the Detection Buffer in the kit, added the specified amount of […] (Eu)-labeled antibody and streptavidin XL-665, and prepared the detection solution. • 2) Loaded with a Multidrop automatic dispenser, and 10 uL of the detection solution per well, incubated at 23° C. for 1 hour. It terminated the reaction of the enzyme and substrate mixture. • 3) Reading after centrifugation on a multi-function microplate reader, • d) Data Analysis: Analyzed the data with XL-Fit, and calculated the IC50 value of the compound.

[2] = system: AKT phosphorylation; experiment: In vitro test of the inhibition effect on AKT phosphorylation (ELISA, Ramos cells); assay type: cell-based; settings: Homo sapiens, Ramos
Method: Experimental Example 2: In Vitro Test of the Inhibition Effect of the Example Compounds on AKT Phosphorylation
• 2.1 Experimental Purpose: Intracellular protein kinase AKT phosphorylation detected by experiment was measured by enzyme-linked immunosorbent assay (ELISA), and the inhibition of the compound on protein kinase AKT phosphorylation was evaluated by an index of the half-cell inhibition concentration (IC50) value of the compound. • 2.2 Experimental Materials: • Cell line: Ramos cell line • Cell culture medium (RPMI1640, Invitrogen #22400-105; 10% serum Gibco #10099-141; L-glutamine 1×, Gibco #25030-081) • Experimental medium (without serum, RPM11640, Invitrogen #22400-105; L-glutamine 1×, Gibco #25030) • Lysis buffer (trishydroxymethylaminomethane hydrochloride, Invitrogen15567-1000 ml; sodium chloride, domestic; sodium deoxycholate, Sigma30970-25 G; polyethylene glycol octylphenyl ether, SigmaT9284-100 ml; dodecane sodium sulfonate, SigmaL3771; ethylenediaminetetraacetic acid, Invitrogen15575-038-100 ml; ultrapure water, MilliQ) • Protease inhibitor (Roche, 4693159001-30/BOX) • Phosphatase inhibitor mixture 2 (Sigma, P5726-5 ML) • Phosphatase inhibitor mixture 3 (Sigma, P0044-5 ML) • Goat Anti-Human immunoglobulin M (F(ab′)2 Goat Anti-Human IgM) (Jackson Immuno Research-109-006-129) • Phosphorylated AKT assay kit (Phospho-AKT 1/2/3 (ser473)) (TGR Bioscience, EKT002) • 10× Hank's balanced salt solution (Gibco #14065-056) • 96-well cell plate (Greiner #655090) • Compound V-well dilution plate (Axygen #WITP02280) • CO2 incubator (Thermo #371) • Centrifuge (Eppendorf #581 OR) • Vi-cell cell counter (Beckman Coulter) • Pipette (Eppendorf) • Pipette (Greiner) • Pipetting gun (Eppendorf) • Multi-purpose microplate reader (Envision Reader) • 2.3 Experimental procedures and methods: • a) Cell Seeding (Ramos Cells) • 1) The medium was preheated in a 37° C. water bath. Suspended cells and their culture solution were aspirated, centrifuged at 1000 rpm for 5 minutes. • 2) Aspirated the cell culture medium, added 10 mL of pre-warmed medium to the centrifuge tube, blew off the resuspended cells, pipette 1 mL of the cell suspension, and counted with Vi-cell; • 3) The Ramos cells were diluted with a medium to a density of 5×10^6/mL, and the diluted cells were added to a 96-well cell culture plate (100 μL/well) using a lance. Placed the cell plates in a 37° C., 5% CO2 incubator for overnight. • b) Cell starvation: • 1) After cultured the inoculation cells for overnight, centrifuged at 1000 rpm for 5 minutes on the next day, aspirated the original medium by a lance, added serum-free experimental medium, placed the cell plates in a 37° C., 5% CO2 incubator, and starved for overnight. • c) Compound preparation and dosing: • 1) The compound was diluted with dimethyl sulfoxide to give an initial concentration of 5 mM. A triple gradient dilution was done with compound V dilution plate to make 10 concentration points. • 2) Took another new compound V-well dilution plate, added 198 ul of serum-free experimental medium to each well, and then added 2 ul of the diluted compound above to each well, and mixed with a lance. […]

[3] = Ramos cell line, compound 1 hour, goat anti-human IgM 10 ug/ml for 10 minutes, Phospho-AKT 1/2/3 (ser473) ELISA, read-out: Inhibit AKT phosphorylation IC50
[4] = read-out: Inhibit AKT phosphorylation IC50 (nM)

IC50 [1]	IC50 [2, 3]	Compound	IC50 [2, 4]
40.7 nM	323 nM	Cn1c(=O)c(Nc2ccc(C3CCOCC3)cn2)cc2cc(-c3cc[nH]n3)ccc21 [Example 3]	
34.3 nM	585 nM	Cn1c(=O)c(Nc2ccc(N3CCN(C4COC4)CC3)cn2)cc2cc(-c3cc[nH]n3)ccc21 [Example 4, 1-Methyl-3-[[5-(4-(oxetan-3-yl)piperazin-1-yl]pyridin-2-yl]amino]-6-(1H-pyrazol-3-yl)quinoline-2(1H)-one]	
10.3 nM	211 nM	Cn1c(=O)c(Nc2ccc(N3CCOCC3)cn2)cc2c(Cl)c(-c3cc[nH]n3)ccc21 [Example 7, 5-Chloro-1-methyl-3-((5-morpholinepyridin-2-yl)amino)-6-(1H-pyrazol-3-yl)quinoline-2(1H)-one]	
54.6 nM	188 nM	Cn1c(=O)c(Nc2ccc(N3CCOCC3)cn2)cc2c(F)c(-c3cc[nH]n3)c(F)cc21 [Example 8, 5,7-Difluoro-1-methyl-3-((5-morpholinopyridin-2-yl)amino)-6-(1H-pyrazol-3-yl)quinoline-2(1H)-one]	
12 nM	170 nM	Cn1c(=O)c(Nc2ccc(N3CCN(C4COC4)CC3)cn2)cc2c(F)c(-c3cc[nH]n3)ccc21 [Example 9, 5-Fluoro-1-methyl-3-((5-(4-(oxetan-3-yl)piperazin-1-yl)pyridin-2-yl)amino)-6-(1H-pyrazol-3-yl)quinoline-2(1H)-one]	
30 nM	343 nM	Cn1c(=O)c(Nc2ccc(N3CCC(O)(C(F)(F)F)CC3)cn2)cc2c(F)c(-c3cc[nH]n3)ccc21 [Example 10, 5-Fluoro-3-[[5-[4-hydroxy-4-(trifluoromethyl)piperidin-1-yl]pyridin-2-yl]amino]-1-methyl-6-(1H-pyrazol-3-yl)quinoline-2(1H)-one]	
15 nM	230 nM	Cn1c(=O)c(Nc2ccc(N3CCOCC3)cn2)cc2c(F)c(-c3cc[nH]n3)ccc21 [Example 11, 5-Fluoro-1-methyl-3-((5-morpholinopyridin-2-yl)amino)-6-(1H-pyrazol-3-yl)quinoline-2(1H)-one]	
114 nM	750 nM	Cn1c(=O)c(Nc2ccc(N3CCC4(CC3)COC4)cn2)cc2c(F)c(-c3cc[nH]n3)ccc21 [Example 12, 5-Fluoro-1-methyl-3-[[5-(2-oxazole-7-azaspiro[3.5]nonane-7-yl)pyridin-2-yl]amino]-6-(1H-pyrazol-3)quinoline-2(1H)-one]	
101 nM	425 nM	Cn1c(=O)c(Nc2ccccn2)cc2c(F)c(-c3cc[nH]n3)ccc21 [Example 15, 5-Fluoro-1-methyl-6-(1H-pyrazol-3-yl)-3-(pyridin-2-amine)-quinoline-2(1H)-one]	
47.9 nM	197 nM	Cn1c(=O)c(Nc2ccc(N)cn2)cc2c(F)c(-c3cc[nH]n3)ccc21 [Example 16, 3-((5-Aminopyridin-2-yl)amino)-5-fluoro-1-methyl-6-(1H-pyrazol-3-yl)quinoline-2(1H)-one]	
24.9 nM	255 nM	Cn1c(=O)c(Nc2ccc(N3CCCC(C)(C(=O)O)C3)cn2)cc2c(F)c(-c3cc[nH]n3)ccc21 (stereo not drawn) [Example 17, 1-(6-((5-Fluoro-1-methyl-2-oxo-6-(1H-pyrazol-3-yl)-1,2-dihydroquinolin-3-yl)amine)pyridine-3-yl)-3-pipecoline-3-carboxylic acid]	
26 nM	844 nM	Cn1c(=O)c(Nc2ccc(N3CCC[C@@H](C(=O)O)C3)cn2)cc2c(F)c(-c3cc[nH]n3)ccc21 [Example 18, (3R)-1-[6-[[5-fluoro-1-methyl-2-oxa-6-(1H-pyrazol-3-yl)-1,2-dihydroquinolin-3-yl)amino]pyridin-3-yl]piperidine-3-carboxylic acid]	
14.3 nM	388 nM	Cn1c(=O)c(Nc2ccc(N3CCC[C@H](C(=O)O)C3)cn2)cc2c(F)c(-c3cc[nH]n3)ccc21 [Example 19, (3S)-1-[6-[[5-fluoro-1-methyl-2-oxa-6-(1H-pyrazol-3-yl)-1,2-dihydroquinolin-3-yl)amine]pyridin-3-yl]piperidine-3-carboxylic acid]	
12.7 nM	63 nM	Cn1c(=O)c(Nc2ccc(C(C)(C)O)cn2)cc2c(F)c(-c3cc[nH]n3)ccc21 [Example 20]	
26.9 nM	169 nM	Cn1c(=O)c(Nc2ccc(C3(F)COC3)cn2)cc2c(F)c(-c3cc[nH]n3)ccc21 [Example 23, 5-Fluoro-3-[[5-(3-fluorooxetan-3-yl)pyridin-2-yl]amino]-1-methyl-6-(1H-pyrazol-3-yl)quinoline-2(1H)-one]	
4.2 nM	50 nM	Cn1c(=O)c(Nc2ccc(N3CCOCC3)cc2)nc2ccc(-c3cn[nH]c3)cc21 [Example 26, 1-Methyl-3-((4-morpholinephenyl)amino)-7-(1H-pyrazol-4-yl)quinoxaline-2(1H)-one]	
61 nM	233 nM	Cc1[nH]ncc1-c1ccc2nc(Nc3ccc(N4CCOCC4)cc3)c(=O)n(C)c2c1 [Example 29, 1-Methyl-7-(5-methyl-1H-pyrazol-4-yl)-3-((4-morpholinephenyl)amino)quinoxaline-2(1H)-one]	
81 nM	132 nM	Cn1c(=O)c(Nc2ccc(N3CCOCC3)cc2)nc2ccc(-c3c[nH]cn3)cc21 [Example 31, 7-(1H-imidazol-4-yl)-1-methyl-3-((4-morpholinephenyl)amino)quinoxaline-2(1H)-one]	
5.1 nM	52.2 nM	Cn1c(=O)c(Nc2ccc(N3CCS(=O)(=O)CC3)cc2)nc2ccc(-c3cn[nH]c3)cc21 [Example 35, 3-((4-(1,1-Dioxothiomorpholine)phenyl)amino)-1-methyl-7-(1H-pyrazol-4-yl)quinoxaline-2(1H)-one]	
10.1 nM	261 nM	CN1CCCN(c2ccc(Nc3nc4ccc(-c5cn[nH]c5)cc4n(C)c3=O)cc2)CC1 [Example 37, 1-Methyl-3-((4-(4-methyl-1,4-diazepan-1-yl)phenyl)amino)-7-(1H-pyrazol-4-yl)quinoxaline-2(1H)-one]	
40 nM	343 nM	Cn1c(=O)c(Nc2ccc(S(=O)(=O)N3CCCCC3)cc2)nc2ccc(-c3cn[nH]c3)cc21 [Example 38, 1-Methyl-3-((4-(piperidin-1-ylsulfonyl)phenyl)amino)-7-(1H-pyrazol-4-yl)quinoxaline-2(1H)-one]	

Compound	IC50 [1]	IC50 [2, 3]	IC50 [2, 4]
Cn1c(=O)c(Nc2ccc(N3CCOCC3)cn2)cc2cc(-c3cc[nH]n3)c(F)cc21 [Example 6, 7-Fluoro-1-methyl-3-((5-morpholinepyridin-2-yl)amino)-6-(1H-pyrazol-3-yl)quinoline-2(1H)-one]	21.1 nM		446 nM
Cn1c(=O)c(Nc2ccc(C3(O)CCC3)cn2)cc2c(F)c(-c3cc[nH]n3)ccc21 [Example 21]	22 nM		200 nM
CN1CCN(c2ccc(Nc3nc4ccc(-c5cn[nH]c5)cc4n(C)c3=O)cc2)CC1 [Example 33, 1-Methyl-3((4-(4-methylpiperazin-1-yl)phenyl)amino)-7-(1H-pyrazol-4-yl) quinoxaline-2(1H)-one]	3.2 nM		226 nM
